According to US20120245161A1 (SANOFI, priority 2009, published 2012):
pKi: −log10 of the molar value. Where “and” joins values, the source holds several entries; their conditions need not be identical. Identical values can stand only once. Counter-ions that a name gives are not always drawn.

target: T1, recombinant human beta tryptase (Homo sapiens, UniProt P20231); test: beta-Tryptase inhibition, chromogenic enzyme assay (substrate S2366, read at 405 nm); type: biochemical; conditions: Ki calculated from IC50: Ki=IC50/(1+[Substrate]/Km); 0.5 mM substrate, room temperature; read-out: Tryptase Ki
T1 construct: made in house; host or cells: yeast cells
Description: Inhibition of this catalytic activity may be measured by the in vitro enzyme assay and the cellular assay.
Tryptase inhibition activity is confirmed using either isolated human lung tryptase or recombinant human beta tryptase expressed in yeast cells. Essentially equivalent results are obtained using isolated native enzyme or the expressed enzyme. The assay procedure employs a 96 well microplate (Costar 3590) using L-pyroglutamyl-L-prolyl-L-arginine-para-nitroanilide (S2366: Quadratech) as substrate (essentially as described by McEuen et. al. Biochem Pharm, 1996, 52, pages 331-340). Assays are performed at room temperature using 0.5 mM substrate (2×Km) and the microplate is read on a microplate reader (Beckman Biomek Plate reader) at 405 nm wavelength.
Materials and Methods for Tryptase primary screen (Chromogenic assay)
S2366 (Stock solutions of 2.5 mM).
Purified recombinant beta Tryptase Stocks of 310 μg/mL. Protocol (Single point determination) • Add 60 μL of diluted substrate (final concentration of 500 μM in assay buffer) to each well • Add compound in duplicates, final concentration of 20 volume 20 • Add enzyme at a final concentration of 50 ng/mL in a volume of 20 • Total volume for each well is 100 • Agitate briefly to mix and incubate at room temp in the dark for 30 minutes • Read absorbencies at […] Each plate has the following controls: • Totals: 60 μL of substrate, 20 μL of buffer (with 0.2% final concentration of DMSO), • 20 μL of enzyme Non-specific: 60 μL of substrate, 40 μL of buffer (with 0.2% DMSO) Totals: 60 μL of substrate, 20 μL of buffer (No DMSO), 20 μL of enzyme Non-specific: 60 μL of substrate, 40 μL of buffer (No DMSO) Protocol (IC50 and Ki determination)
The protocol is essentially the same as above except that the compound is added in duplicates at the following final concentrations: 0.01, 0.03, 0.1, 0.3, 1, 3, 10 μM (All dilutions carried out manually). For every assay, whether single point or IC50 determination, a standard compound is used to derive IC50 for comparison. From the IC50 value, the Ki can be calculated using the following formula: Ki=IC50/(1+[Substrate]/Km).

T1 sequence (P20231 31-275): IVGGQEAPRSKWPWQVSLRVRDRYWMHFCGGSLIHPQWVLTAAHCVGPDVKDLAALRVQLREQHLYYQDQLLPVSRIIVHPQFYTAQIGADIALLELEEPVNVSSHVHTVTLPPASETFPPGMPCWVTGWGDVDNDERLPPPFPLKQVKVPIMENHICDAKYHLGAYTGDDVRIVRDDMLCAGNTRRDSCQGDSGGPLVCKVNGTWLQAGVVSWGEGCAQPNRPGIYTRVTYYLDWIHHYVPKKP

SMILES	pKi
COCCn1cc(C(=O)N2CCC(c3cc(CN)ccc3F)CC2)c2c(-c3cncc(C)c3)cccc21 [Example 82, [4-(5-Aminomethyl-2-fluoro-phenyl)-piperidin-1-yl]-[1-(2-methoxy-ethyl)-4-(5-methyl-pyridin-3-yl)-1H-indol-3-yl]-methanone dihydrochloride]	8.22
COCCn1cc(C(=O)N2CCC(c3cccc(CN)n3)CC2)c2cccc(C)c21 [Example 113, (6-Aminomethyl-3′,4′,5′,6′-tetrahydro-2′H-[2,4]bipyridinyl-1′-yl)-[1-(2-methoxy-ethyl)-7-methyl-1H-indol-3-yl]-methanone dihydrochloride]	6.18
CCCn1cc(-c2cccc3c2c(C(=O)N2CCC(c4cc(CN)ccc4F)CC2)cn3CCOC(F)(F)F)cn1 [Example 93, [4-(5-Aminomethyl-2-fluoro-phenyl)-piperidin-1-yl]-[4-(1-propyl-1H-pyrazol-4-yl)-1-(2-trifluoromethoxy-ethyl)-1H-indol-3-yl]-methanone dihydrochloride]	6.80
CCN(CC)CCn1cc(C(=O)N2CCC(c3cc(CN)ccc3F)CC2)c2ccccc21 [Example 37, [4-(5-Aminomethyl-2-fluoro-phenyl)-piperidin-1-yl]-[1-(2-diethylamino-ethyl)-1H-indol-3-yl]-methanone dihydrochloride]	7.06
COCCn1cc(C(=O)N2CCC(c3cc(CN)ccc3F)CC2)c2c(-c3ccnn3C)cccc21 [Example 89, [4-(5-Aminomethyl-2-fluoro-phenyl)-piperidin-1-yl]-[1-(2-methoxy-ethyl)-4-(2-methyl-2H-pyrazol-3-yl)-1H-indol-3-yl]-methanone dihydrochloride]	7.96
COCCn1cc(C(=O)N2CCC(c3cc(CN)ccc3F)CC2)c2c(-c3ccnc(OC)c3)cccc21 [Example 85, [4-(5-Aminomethyl-2-fluoro-phenyl)-piperidin-1-yl]-[1-(2-methoxy-ethyl)-4-(2-methoxy-pyridin-4-yl)-1H-indol-3-yl]-methanone dihydrochloride]	8.05

same assay, conditions: Tryptase Ki (nM), Ki calculated from IC50: Ki=IC50/(1+[Substrate]/Km); 0.5 mM substrate, room temperature

SMILES	Ki
COCCn1cc(C(=O)N2CCC(c3cc(CN)ccc3F)CC2)c2c(NC(=O)c3cncnc3)cccc21 [Example 102, Pyrimidine-5-carboxylic acid [3-[4-(5-aminomethyl-2-fluoro-phenyl)-piperidine-1-carbonyl]-1-(2-methoxy-ethyl)-1H-indol-4-yl]-amide hydrochloride]	22 nM
COCCn1cc(C(=O)N2CCC(c3cc(CN)ccc3F)CC2)c2c(-c3cc(Cl)cc(Cl)c3)cccc21 [Example 66, 4-(5-Aminomethyl-2-fluoro-phenyl)-piperidin-1-yl]-[4-(3,5-dichloro-phenyl)-1-(2-methoxy-ethyl)-1H-indol-3-yl]-methanone hydrochloride]	164 nM
COCCn1cc(C(=O)N2CCC(c3cc(CN)ccc3F)CC2)c2c(OC3CC3)cccc21 [Example 58, [4-(5-Aminomethyl-2-fluoro-phenyl)-piperidin-1-yl]-[4-cyclopropoxy-1-(2-methoxy-ethyl)-1H-indol-3-yl]-methanone hydrochloride]	108 nM
NCc1ccc(F)c(C2CCN(C(=O)c3cn(CCOC(F)(F)F)c4c(F)cccc34)CC2)c1 [Example 86, [4-(5-Aminomethyl-2-fluoro-phenyl)-piperidin-1-yl]-[7-fluoro-1-(2-trifluoromethoxy-ethyl)-1H-indol-3-yl]-methanone hydrochloride]	80 nM
COCCn1cc(C(=O)N2CCC(c3cc(CN)ccc3F)CC2)c2c(NC(=O)C3CCN(C)CC3)cccc21 [Example 97, 1-Methyl-piperidine-4-carboxylic acid [3-[4-(5-aminomethyl-2-fluoro-phenyl)-piperidine-1-carbonyl]-1-(2-methoxy-ethyl)-1H-indol-4-yl]-amide hydrochloride]	28 nM
NCc1ccc(F)c(C2CCN(C(=O)c3cn(CCc4ccccc4)c4ccccc34)CC2)c1 [Example 15, [4-(5-Aminomethyl-2-fluoro-phenyl)-piperidin-1-yl]-(1-phenethyl-1H-indol-3-yl)-methanone hydrochloride]	18 nM
CNC(=O)COc1ccc(CN)cc1C1CCN(C(=O)c2cn(CCOC)c3c(OC(F)(F)F)cccc23)CC1 [Example 28, 2-(4-Aminomethyl-2-{1-[1-(2-methoxy-ethyl)-7-trifluoromethoxy-1H-indole-3-carbonyl]-piperidin-4-yl}-phenoxy)-N-methyl-acetamide hydrochloride]	538 nM
COCCn1cc(C(=O)N2CCC(c3cc(CN)ccc3F)CC2)c2c(NC(=O)N(C)C)cccc21 [Example 100, 3-[3-[4-(5-Aminomethyl-2-fluoro-phenyl)-piperidine-1-carbonyl]-1-(2-methoxy-ethyl)-1H-indol-4-yl]-1,1-dimethyl-urea hydrorchloride]	17 nM
COCCn1cc(C(=O)N2CCC(c3cc(CN)ccc3F)CC2)c2c(NC(C)=O)cccc21 [Example 96, N-[3-[4-(5-Aminomethyl-2-fluoro-phenyl)-piperidine-1-carbonyl]-1-(2-methoxy-ethyl)-1H-indol-4-yl]-acetamide hydrochloride]	18 nM
Cc1cccc2c(C(=O)N3CCC(c4cc(CN)ccc4F)CC3)cn(CCCc3cccnc3)c12 [Example 10, [4-(5-Aminomethyl-2-fluoro-phenyl)-piperidin-1-yl]-[7-methyl-1-(3-pyridin-3-yl-propyl)-1H-indol-3-yl]-methanone dihydrochloride]	175 nM
COCCn1cc(C(=O)N2CCC(c3cc(CN)ccc3OCC(N)=O)CC2)c2cccc(OC(F)(F)F)c21 [Example 32, 2-(4-Aminomethyl-2-{1-[1-(2-methoxy-ethyl)-7-trifluoromethoxy-1H-indole-3-carbonyl]-piperidin-4-yl}-phenoxy)-acetamide hydrochloride]	1280 nM
COCCn1cc(C(=O)N2CCC(c3cc(CN)ccc3F)CC2)c2cccc(C3CCC3)c21 [Example 19, [4-(5-Aminomethyl-2-fluoro-phenyl)-piperidin-1-yl]-[7-cyclobutyl-1-(2-methoxy-ethyl)-1H-indol-3-yl]-methanone hydrochloride]	94 nM
COCCn1cc(C(=O)N2CCC(c3cc(CN)ccc3F)CC2)c2c(OC)cccc21 [Example 47, [4-(5-Aminomethyl-2-fluoro-phenyl)-piperidin-1-yl]-[4-methoxy-1-(2-methoxy-ethyl)-1H-indol-3-yl]-methanone hydrochloride]	56 nM and 59 nM
NCc1ccc(F)c(C2CCN(C(=O)c3cn(CCOC(F)(F)F)c4ccccc34)CC2)c1 [Example 81, hydrochloride]	224 nM
NCc1ccc(F)c(C2CCN(C(=O)c3cn4c5c(cccc35)OCC4)CC2)c1 [Example 49, [4-(5-Aminomethyl-2-fluoro-phenyl)-piperidin-1-yl]-(2,3-dihydro-pyrrolo[1,2,3-de]-1,4-benzoxazin-6-yl)-methanone hydrochloride]	291 nM
CCCCn1cc(C(=O)N2CCC(c3cc(CN)ccc3F)CC2)c2cccc(OC(F)(F)F)c21 [Example 43, [4-(5-Aminomethyl-2-fluoro-phenyl)-piperidin-1-yl]-(1-butyl-7-trifluoromethoxy-1H-indol-3-yl)-methanone hydrochloride]	850 nM
COCCn1cc(C(=O)N2CCC(c3cc(CN)ccc3F)CC2)c2c(-c3ccccc3)cccc21 [Example 60, [4-(5-Aminomethyl-2-fluoro-phenyl)-piperidin-1-yl]-[1-(2-methoxy-ethyl)-4-phenyl-1H-indol-3-yl]-methanone hydrochloride]	22 nM
